The record followed here is the NIST ThermoML archive (doi:10.1007/s10765-013-1432-0).

This series can be described thus: mn = molality of the nth substance listed, in mol/kg. As to conditions: 101 kPa, Liquid, Linear variable-path acoustic interferometer, m1 = 0.512.

Numbers after ± are expanded uncertainties.

In general, speed of sound refers to the propagation velocity of pressure waves in the medium. Consider `O=S(=O)([O-])[O-].[K+].[K+]` [potassium sulfate] + O, for which the speed of sound was determined as 1563.6 ± 1.9 m/s (298.15 K); 1571.6 ± 1.8 m/s (303.15 K); 1580.3 ± 1.8 m/s (308.15 K); 1587.6 ± 1.8 m/s (313.15 K); 1593.5 ± 1.8 m/s (318.15 K); 1598.3 ± 1.9 m/s (323.15 K).

Turning to `O=[N+]([O-])[O-].[K+]` [potassium nitrate] + O, the speed of sound by setting is: (298.15 K) 1517.8 ± 1.8 m/s; (303.15 K) 1526.8 ± 1.8 m/s; (308.15 K) 1536.3 ± 1.8 m/s; (313.15 K) 1544.4 ± 1.8 m/s; (318.15 K) 1551.1 ± 1.8 m/s; (323.15 K) 1556.6 ± 1.9 m/s.
